Reference: the Kinase Knowledgebase extract (Sharma et al. 2016)

The molecules below were run against MAPK14 (human) (UniProt Q16539) (assay: Inhibition of MAPK14 Kinase Activity).
Sequence of MAPK14 (human) (Q16539 whole entry, looked up): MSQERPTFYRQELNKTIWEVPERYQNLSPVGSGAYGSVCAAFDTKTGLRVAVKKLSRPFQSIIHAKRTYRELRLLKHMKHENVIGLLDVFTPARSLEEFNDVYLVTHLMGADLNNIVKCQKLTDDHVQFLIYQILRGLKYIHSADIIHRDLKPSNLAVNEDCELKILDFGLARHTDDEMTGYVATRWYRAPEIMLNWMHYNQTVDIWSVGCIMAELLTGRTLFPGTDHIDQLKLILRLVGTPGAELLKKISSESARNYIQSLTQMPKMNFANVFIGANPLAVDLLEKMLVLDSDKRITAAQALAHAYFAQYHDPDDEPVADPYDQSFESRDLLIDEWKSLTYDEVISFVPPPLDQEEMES

Row | Structure (SMILES) | IC50
1 | Cc1c(F)cc(C(=O)NC2CC2)cc1-c1ccc(C(=O)N2CCC2)cc1 | < 10 µM
2 | Cc1c(F)cc(C(=O)NC2CC2)cc1-c1ccc(C(=O)NC(C)(C)C(=O)C(C)C)cc1 | < 10 µM
3 | CSCCNC(=O)c1ccc(-c2cc(C(=O)NC3CC3)cc(F)c2C)cc1 | < 10 µM
4 | Cc1c(F)cc(C(=O)NC2CC2)cc1-c1ccc(C(=O)N2CCCC2)cc1 | < 10 µM
5 | CC(=O)CC(C)(C)NC(=O)c1ccc(-c2cc(C(=O)NC3CC3)cc(F)c2C)cc1 | < 10 µM
6 | Cc1c(F)cc(C(=O)NC2CC2)cc1-c1ccc(C(=O)NC(CO)C2CC2)cc1 (stereo unspecified) | < 10 µM
7 | Cc1c(F)cc(C(=O)NC2CC2)cc1-c1ccc(C(=O)NC2(C#N)CCCCC2)cc1 | < 10 µM

Results, then the molecule that gave them:

Row | IC50 | Structure (SMILES)
8 | < 10 µM | Cc1c(F)cc(C(=O)NC2CC2)cc1-c1ccc(C(=O)NCCC#N)cc1
9 | < 10 µM | Cc1c(F)cc(C(=O)NC2CC2)cc1-c1ccc(C(=O)NCC2(O)CCCCC2)cc1
10 | < 10 µM | Cc1c(F)cc(C(=O)NC2CC2)cc1-c1ccc(C(=O)NCCS(C)(=O)=O)cc1
11 | < 10 µM | CCC(C)(C#N)NC(=O)c1ccc(-c2cc(C(=O)NC3CC3)cc(F)c2C)cc1 (stereo unspecified)
